In patent US20230301893A1, “Hair Growth and Scalp Preparations” (priority 2020, published 2023):
No end group written: not given here.

Key:
[1] = test system: normal human vascular endothelial cells (NHVEC); test: Boyden chamber migration assay; type: cell-based; conditions: for cell migration over migration in the presence of media alone / migration response compared to three positive controls (VEGF, PDGF, FGF): 100 ng/ml; for Cell Number per HPF, Chamber 1 / Cell Number per HPF, Chamber 2 / Cell Number per HPF, Chamber 3 / Cell Number per HPF, Mean: 5×10^4 cells per well
Description: The effects of TB4 and TA1 on endothelial cell migration were determined. To investigate the possibility that these peptides effect the migration of normal human vascular endothelial cells (NHVEC) in vitro, a Boyden chamber migration assay was performed.
In the experiments of Table 1 and FIG. 1, normal human microvesicular endothelial cells are used at 5×10^4 cells per well. The wells are coated with 100 µg/ml […] Type IV.

[2] = Isoelectric point of the peptide; type: physicochemical
endothelial cells = test: MTT (tetrazolium) endothelial cell proliferation assay; type: cell-based; conditions: 10 ng/ml; 4 hours and 24 hours tested
Description: The effects of TB4 and TA1 on endothelial cell proliferation were determined using a MTT (tetrazolium) assay. The results are shown in FIG. 2 for 4 hours and 24 hours and for three concentrations of these peptides, 10 ng/ml, 100 ng/ml, and 1000 ng/ml. […] At a concentration of 10 ng/ml, TB4 and TA1 maximally stimulated cell proliferation approximately 2-fold and 3-fold over that of the control, respectively.

Substance: Ac-ANKGQAPGEAMKPSFLKEKKEVVERSKEEEGPAKMNLVIEMPKD (Ac-ANKGQAPGEAMKPSFLKEKKEVVERSKEEEGPAKMNLVIEMPKD) [TB4]
- cell migration over migration in the presence of media alone [1]: significantly enhanced
- migration response compared to three positive controls (VEGF, PDGF, FGF) [1]: heightened responses

Substance: Ac-SDAAVDTSSEITTKDLKEKKEVVEEAEN (Ac-SDAAVDTSSEITTKDLKEKKEVVEEAEN) [TA1, may be derived by cleavage of thymosin]
- Cell Number per HPF, Chamber 1 ([1]; 0.1 µg/ml): 38 per HPF
- Cell Number per HPF, Chamber 2 ([1]; 0.1 µg/ml): 45 per HPF
- Cell Number per HPF, Chamber 3 ([1]; 0.1 µg/ml): 33 per HPF
- Cell Number per HPF, Mean ([1]; 0.1 µg/ml): 39 per HPF
- cell migration over migration in the presence of media alone [1]: significantly enhanced
- migration response compared to three positive controls (VEGF, PDGF, FGF) [1]: heightened responses
- Cell Number per HPF, Chamber 1 ([1]; 0.5 µg/ml): 52 per HPF
- Cell Number per HPF, Chamber 2 ([1]; 0.5 µg/ml): 53 per HPF
- Cell Number per HPF, Chamber 3 ([1]; 0.5 µg/ml): 57 per HPF
- Cell Number per HPF, Mean ([1]; 0.5 µg/ml): 54 per HPF
- Cell Number per HPF, Chamber 1 ([1]; 1 µg/ml): 64 per HPF
- Cell Number per HPF, Chamber 2 ([1]; 1 µg/ml): 69 per HPF
- Cell Number per HPF, Chamber 3 ([1]; 1 µg/ml): 43 per HPF
- Cell Number per HPF, Mean ([1]; 1 µg/ml): 59 per HPF
- Cell Number per HPF, Chamber 1 ([1]; 5 µg/ml): 35 per HPF
- Cell Number per HPF, Chamber 2 ([1]; 5 µg/ml): 64 per HPF
- Cell Number per HPF, Chamber 3 ([1]; 5 µg/ml): 72 per HPF
- Cell Number per HPF, Mean ([1]; 5 µg/ml): 57 per HPF
- Cell Number per HPF, Chamber 1 ([1]; 10 µg/ml): 51 per HPF
- Cell Number per HPF, Chamber 2 ([1]; 10 µg/ml): 55 per HPF
- Cell Number per HPF, Chamber 3 ([1]; 10 µg/ml): 66 per HPF
- Cell Number per HPF, Mean ([1]; 10 µg/ml): 57 per HPF
- concentration of maximal effect on migration ([1]; dose response): 100 ng/mL
- isoelectric point [2]: 4.1
- maximal stimulation of cell proliferation over that of the control (endothelial cells): ~3 fold
